From patent US6472396B1, “Barbituric acid derivatives, processes for their production and pharmaceutical agents containing these compounds” (Roche Diagnostics GmbH, priority 1995, dated 2002)

What follows are compounds tested against T1, MMP-8 (Homo sapiens, UniProt P22894) (assay: Inhibition of MMPs (HNC catalytic domain), fluorogenic heptapeptide substrate DNP-Pro-Leu-Gly-Leu-Trp-Ala-D-Arg-NH2). Conditions: not given.
T1 construct: catalytic domain (Met80-Gly242) of human neutrophil collagenase; made in house
T1 sequence (P22894 100-262 limits assumed): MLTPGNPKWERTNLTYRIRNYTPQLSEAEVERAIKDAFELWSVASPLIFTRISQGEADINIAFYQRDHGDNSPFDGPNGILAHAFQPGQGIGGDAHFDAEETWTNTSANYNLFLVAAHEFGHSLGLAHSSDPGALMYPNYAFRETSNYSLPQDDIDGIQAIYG
Type: biochemical
Description: In order to determine the inhibition of MMPs, for example HNC, the catalytic domain (isolation and purification see for example Schnierer, S., Kleine, T., Gote, T., Hillemann, A., Knäuper, V., Tschesche, H., Biochem. Biophys. Res. Commun. (1993) 191, 319-326) is incubated with inhibitors having various concentrations. Subsequently, the initial reaction rate in the conversion of a standard substrate is measured in a manner analogous to Grams F. et al., FEBS 335 (1993) 76-80).
The results are evaluated by plotting the reciprocal reaction rate against the concentration of the inhibitor. The inhibition constant (Ki) is obtained as the negative section of the abscissis by the graphical method according to Dixon, M., Biochem. J. (1953) 55, 170-202.
The synthetic collagenase substrate is a heptapeptide which is coupled, at the […], with DNP (dinitrophenol). Said DNP residue quenches by steric hindrance the fluorescence of the adjacent tryptophane of the heptapeptide. After cleavage of a tripeptide which includes the DNP group, the tryptophane fluorescence increases. The proteolytic cleavage of the substrate therefore can be measured by the fluorescence value.
The assay was performed at 25° C. in a freshly prepared 50 mM Tris buffer (pH 8.0) treated with dithiozone to remove traces of heavy metals. 4 mM CaCl2 was added and the buffer saturated wtih argon. Stock solutions of adamalysin II were prepared by centrifugation of the protein from an ammonium sulfate suspension and subsequent dissolution in the assay buffer. Stock solutions of collagenase were diluted with the assay buffer. Enzyme concentrations were determined by uv measurements (ε280=2.8 10^4 M1 cm^−1, ε288: 2.2 10^4 M^−1 cm^−1) and the stock solutions were stored in the cold. This solution was diluted 1:100 to obtain the final 16 nM assay concentration. The fluorogenic substrate DNP-ProLeu-Gly-LeuTrp-Ala-D-Arg-NH2 with a Km of 52 μM was used at a concentration of 21.4 μM; for the Ki determination a 12.8 μM concentration has also been used. Substrate fluorescence was measured at an excitation and emission wavelength of λ=320 and 420 nm, respectively, on a spectrofluorimeter (Perkin Elmer, Model 650-40) equipped with a thermostated cell holder. Substrate hydrolysis was monitored for 10 min. immediately after adding the enzyme. All reactions were performed at least in triplicate. The Ki values—of the inhibitors were calculated from the intersection point of the straight lines obtained by the plots of vo/vi vs. [concentration of inhibitor], whereas IC50 values were calculated from plots of vi/vo [concentration of inhibitor] by non-linear regression with simple robust weighting.
50 mM Tris/HCl pH 7.6 (Tris=Tris-(hydroxymethyl)-aminomethan)
100 mM NaCl/10 mM CaCl 2/5% MeOH (ff necessary)
Enzyme: 8 nM catalytic domain (Met80-Gly242) of human neutrophil collagenase
Substrate: 10 microM DNP-Pro-Leu-Gly-Leu-Trp-Ala-D-Arg-NH2
A solution of the enzyme and inhibitor in assay buffer (25° C.) was prepared. The reaction was started directly by giving the substrate into the solution. The cleavage of the flourogenic substrate was followed by flourescence spectroscopy with an excitation and emision wavelength of 280 and 350 nm, respectively. The IC50 value was calculated as the inhibitor concentration, which is necessary to decrease the velocity of the reaction to the half in comparison to the reaction without inhibitor.

Compound | IC50 [nM]
O=C1NC(=O)C(c2ccccc2)(N2CCN(c3ccc([N+](=O)[O-])cc3)CC2)C(=O)N1 [example 32.77, 5-[4-(4-Nitro-phenyl)-piperazin-1-yl)-5-phenyl-pyrimidine-2,4,6-trione] | 160
O=C1NC(=O)C(c2ccccc2)(N(Cc2ccccc2)C(=O)Cc2cccc(Br)c2)C(=O)N1 [preferred no. 120, N-Benzyl-2-(3-bromo-phenyl)-N-(2,4,6-trioxo-5-phenyl-hexahydro-pyrimidin-5-yl)-acetamide] | 150

Same assay, conditions: MMP-8 (catalytic domain of human neutrophil collagenase), 25° C.; read-out: IC-50

Compound | IC50 [nM]
5-Decyl-5-[N-(2-hydroxyethyl)piperazinyl]barbituric Acid [example 28] | 320
CCCCCCCCC1(N2CCN(c3ccc([N+](=O)[O-])cc3)CC2)C(=O)NC(=O)NC1=O [preferred no. 118] | 60
O=C1NC(=O)C(NC(=O)c2cccc3c2C(=O)c2ccccc2-3)(c2ccccc2)C(=O)N1 [example 32.74, 9-Oxo-9H-fluorene-1-carboxylic acid (2,4,6-trioxo-5-phenyl-hexadro-pyrimidin-5-yl)-amide] | 890
O=C1NC(=O)C(c2ccc(-c3ccccc3)cc2)(N2CCN(c3ccc([N+](=O)[O-])cc3)CC2)C(=O)N1 [example 26, 5-(4′-Biphenyl)-5-[N-(4-nitrophenyl)piperazinyl]barbituric Acid] | 15
5-[N-(2-Hydroxyethyl)piperazinyl]-5-(4-hydroxyphenyl)barbituric Acid [example 20] | 860
5-Octyl-5-[N-(2-hydroxyethyl)piperazinyl]barbituric Acid [example 23] | 110
